Reference: article PMC11249953, “c-KIT inhibitors reduce pathology and improve behavior in the Tg(SwDI) model of Alzheimer’s disease” (Life Science Alliance, 2024)

Assays:
MAP4K4 = molecular target: T1, MAP4K4 (Homo sapiens, UniProt O95819); assay: KINOMEscan competition binding, MAP4K4; conditions: 10 µM compound; for remaining binding at 10 µM: lower = stronger binding, read-out: MAP4K4 %Ctrl @ 10000nM (POC)
T1 construct: DNA label for qPCR read-out (T7 phage fusion or DNA tag); purchased Eurofins DiscoverX Corporation; host or cells: T7 phage in E. coli (BL21-derived) or HEK-293
T1 sequence (O95819 whole entry, the tested form may be a part): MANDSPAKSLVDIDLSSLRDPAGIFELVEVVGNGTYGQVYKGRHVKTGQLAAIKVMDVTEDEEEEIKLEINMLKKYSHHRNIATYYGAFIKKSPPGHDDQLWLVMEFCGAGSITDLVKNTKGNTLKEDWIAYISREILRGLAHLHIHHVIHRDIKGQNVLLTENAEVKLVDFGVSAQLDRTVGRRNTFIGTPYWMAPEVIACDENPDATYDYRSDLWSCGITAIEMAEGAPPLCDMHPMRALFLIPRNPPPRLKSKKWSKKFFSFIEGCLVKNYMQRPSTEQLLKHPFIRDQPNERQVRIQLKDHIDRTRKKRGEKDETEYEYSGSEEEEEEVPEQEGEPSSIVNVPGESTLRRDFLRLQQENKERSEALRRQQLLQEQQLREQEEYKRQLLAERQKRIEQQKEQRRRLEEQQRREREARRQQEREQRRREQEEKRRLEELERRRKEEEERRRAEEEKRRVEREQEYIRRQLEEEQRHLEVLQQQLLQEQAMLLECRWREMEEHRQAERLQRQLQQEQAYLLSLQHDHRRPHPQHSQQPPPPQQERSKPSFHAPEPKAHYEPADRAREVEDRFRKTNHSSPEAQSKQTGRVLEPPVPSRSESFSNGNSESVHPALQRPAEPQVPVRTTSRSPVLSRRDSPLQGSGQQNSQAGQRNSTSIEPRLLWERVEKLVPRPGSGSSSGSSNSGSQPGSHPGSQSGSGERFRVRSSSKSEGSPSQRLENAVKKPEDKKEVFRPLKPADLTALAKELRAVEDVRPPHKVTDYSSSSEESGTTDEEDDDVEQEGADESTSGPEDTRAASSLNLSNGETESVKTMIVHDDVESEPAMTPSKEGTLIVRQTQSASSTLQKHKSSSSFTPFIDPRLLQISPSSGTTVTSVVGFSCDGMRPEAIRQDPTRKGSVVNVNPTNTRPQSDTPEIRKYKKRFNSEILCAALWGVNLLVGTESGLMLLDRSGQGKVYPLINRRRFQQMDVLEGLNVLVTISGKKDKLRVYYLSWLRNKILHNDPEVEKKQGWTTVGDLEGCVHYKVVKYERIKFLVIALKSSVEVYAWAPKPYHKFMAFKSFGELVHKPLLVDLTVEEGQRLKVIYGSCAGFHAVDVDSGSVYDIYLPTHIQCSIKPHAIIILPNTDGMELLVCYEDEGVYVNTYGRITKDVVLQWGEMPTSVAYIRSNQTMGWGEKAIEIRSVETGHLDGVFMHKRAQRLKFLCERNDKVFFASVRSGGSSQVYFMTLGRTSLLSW
Experimental: (§1) The KINOMEscan screening platform (Eurofins DiscoverX Corporation) was performed using active site-directed competition binding assay to quantitatively measure interactions between BK40143 and BK40197 and more than 450 human kinases and disease relevant mutant variants. […] Screening “hits” are identified by measuring the amount of kinase captured in test (BK40143 and BK40197) versus control samples by using a quantitative and ultra-sensitive qRT-PCR method that detects the associated DNA label. BK40143 and BK40197 were screened at 10 µM concentration, and results for primary screen binding interactions were reported as “% Ctrl” (POC), where lower numbers indicate stronger hits and calculated as follows: [test compound signal−positive control signal/negative control signal−positive control signal]×100
(§2) negative control = DMSO (100% Ctrl)
(§3) positive control = control compound (0% Ctrl)
(§4) Based on screening data from of profiled compounds, a proportional relationship between primary screening results and corresponding compound/target affinities can be described as binding constants (Kd values) for the indicated ranges of POC values with tighter binding (higher affinity) interactions associated with lower POC values and weaker binding (lower affinity) associated with higher POC values. Briefly, kinase-tagged T7 phage strains were grown in parallel in 24-well blocks in an E. coli host derived from the BL21 strain. E. coli were grown to log-phase and infected with T7 phage from a frozen stock (multiplicity of infection = 0.4) and incubated with shaking at 32°C until lysis (90–150 min). The lysates were centrifuged (6,000g) and filtered (0.2 μm) to remove cell debris. The remaining kinases were produced in HEK-293 cells and subsequently tagged with DNA for qRT-PCR detection. Streptavidin-coated magnetic beads were treated with biotinylated small molecule ligands for 30 min at RT to generate affinity resins for kinase assays. The liganded beads were blocked with excess biotin and washed with blocking buffer (1% BSA, 0.05% Tween 20, 1 mM DTT; SeaBlock [Pierce]) to remove unbound ligand and to reduce non-specific phage binding. Binding reactions were assembled by combining kinases, liganded affinity beads, and test compounds in 1x binding buffer (20% 0.17x PBS, 0.05% Tween 20, 6 mM DTT; SeaBlock). Test compounds were prepared as 100x stocks in 100% DMSO and directly diluted into the assay. All reactions were performed in polypropylene 384-well plates in a final volume of 0.02 ml. The assay plates were incubated at RT with shaking for 1 h and the affinity beads were washed with wash buffer (1x PBS, 0.05% Tween 20). […] The kinase concentration in the eluates was measured by qRT-PCR.

FLT3 = molecular target: T2, FLT3 (Homo sapiens, UniProt P36888); assay: KINOMEscan competition binding, FLT3; conditions: 10 µM compound; for remaining binding at 10 µM: lower = stronger binding, read-out: FLT3 %Ctrl @ 10000nM (POC)
T2 construct: DNA label for qPCR read-out (T7 phage fusion or DNA tag); purchased Eurofins DiscoverX Corporation; host or cells: T7 phage in E. coli (BL21-derived) or HEK-293
T2 sequence (P36888 27-993): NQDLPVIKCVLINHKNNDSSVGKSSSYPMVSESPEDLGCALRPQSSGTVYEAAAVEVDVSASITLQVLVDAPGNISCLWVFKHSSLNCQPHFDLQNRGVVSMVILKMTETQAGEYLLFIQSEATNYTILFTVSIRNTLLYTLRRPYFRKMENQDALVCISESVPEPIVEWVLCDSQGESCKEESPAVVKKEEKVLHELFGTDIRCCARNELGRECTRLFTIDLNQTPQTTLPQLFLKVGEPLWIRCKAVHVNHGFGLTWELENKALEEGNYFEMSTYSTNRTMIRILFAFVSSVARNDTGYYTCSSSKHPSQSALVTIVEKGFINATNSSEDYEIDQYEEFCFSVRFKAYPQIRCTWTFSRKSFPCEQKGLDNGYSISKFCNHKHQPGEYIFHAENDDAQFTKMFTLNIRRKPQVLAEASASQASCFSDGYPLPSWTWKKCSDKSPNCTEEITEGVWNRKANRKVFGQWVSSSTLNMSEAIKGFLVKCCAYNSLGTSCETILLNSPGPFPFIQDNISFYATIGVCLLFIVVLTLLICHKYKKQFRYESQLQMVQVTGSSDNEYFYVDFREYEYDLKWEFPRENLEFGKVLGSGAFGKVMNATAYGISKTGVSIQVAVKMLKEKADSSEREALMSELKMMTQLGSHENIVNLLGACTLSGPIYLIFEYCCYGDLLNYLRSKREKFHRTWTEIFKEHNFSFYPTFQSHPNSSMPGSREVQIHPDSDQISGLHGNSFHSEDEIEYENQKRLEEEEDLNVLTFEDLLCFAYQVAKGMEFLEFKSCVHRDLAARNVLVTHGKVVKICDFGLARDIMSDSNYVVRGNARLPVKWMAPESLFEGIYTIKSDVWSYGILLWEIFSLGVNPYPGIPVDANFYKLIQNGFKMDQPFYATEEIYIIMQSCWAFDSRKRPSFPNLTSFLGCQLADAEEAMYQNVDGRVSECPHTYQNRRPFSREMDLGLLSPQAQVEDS
Experimental: as §1, §2, §3, §4

RIOK3 = molecular target: T3, RIOK3 (Homo sapiens, UniProt O14730); assay: KINOMEscan competition binding, RIOK3; conditions: 10 µM compound; for remaining binding at 10 µM: lower = stronger binding, read-out: RIOK3 %Ctrl @ 10000nM (POC)
T3 construct: DNA label for qPCR read-out (T7 phage fusion or DNA tag); purchased Eurofins DiscoverX Corporation; host or cells: T7 phage in E. coli (BL21-derived) or HEK-293
T3 sequence (O14730 1-519): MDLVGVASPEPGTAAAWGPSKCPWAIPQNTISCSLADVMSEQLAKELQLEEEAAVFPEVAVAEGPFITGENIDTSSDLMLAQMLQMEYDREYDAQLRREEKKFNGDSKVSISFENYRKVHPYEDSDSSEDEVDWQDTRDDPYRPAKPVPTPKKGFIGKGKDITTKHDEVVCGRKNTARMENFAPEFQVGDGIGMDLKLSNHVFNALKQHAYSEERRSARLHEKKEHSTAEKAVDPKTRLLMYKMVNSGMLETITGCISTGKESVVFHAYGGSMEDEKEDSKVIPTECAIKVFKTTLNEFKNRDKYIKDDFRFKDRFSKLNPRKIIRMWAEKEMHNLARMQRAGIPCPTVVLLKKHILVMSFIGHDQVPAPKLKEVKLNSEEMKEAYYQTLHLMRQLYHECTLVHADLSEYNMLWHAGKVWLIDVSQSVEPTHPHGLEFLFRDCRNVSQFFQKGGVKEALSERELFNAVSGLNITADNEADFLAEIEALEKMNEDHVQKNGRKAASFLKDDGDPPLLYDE
Experimental: as §1, §2, §3, §4

SYK = molecular target: T4, SYK (Homo sapiens, UniProt P43405); assay: KINOMEscan competition binding, SYK; conditions: 10 µM compound; for remaining binding at 10 µM: lower = stronger binding, read-out: SYK %Ctrl @ 10000nM (POC)
T4 construct: DNA label for qPCR read-out (T7 phage fusion or DNA tag); purchased Eurofins DiscoverX Corporation; host or cells: T7 phage in E. coli (BL21-derived) or HEK-293
Experimental: as §1, §2, §3, §4

SMILES	inhibition at 10 µM (MAP4K4)	remaining binding at 10 µM (MAP4K4)	inhibition at 10 µM (FLT3)	remaining binding at 10 µM (FLT3)	inhibition at 10 µM (RIOK3)	remaining binding at 10 µM (RIOK3)	inhibition at 10 µM (SYK)	remaining binding at 10 µM (SYK)
Cc1cccc(-c2cc3nccc(Nc4ccccc4)c3s2)c1 [BK40143]	93.2%	6.8%	95.3%	4.7%	80%	20%	94.5%	5.5%
Cc1cccc(-c2cc3nccc(N4CCOCC4)c3s2)c1 [BK40197]	60%	40%	89%	11%	95.2%	4.8%	56%	44%
